Experimental findings from US20230105693A1, “ANTIMICROBIAL COMPOSITIONS” (Firmenich SA, priority 2020, published 2023) are described below.

Structures are written as SMILES. Counter-ions that a name gives are not always drawn. Like-named read-outs stand apart in the source and are kept apart here.

Data set [1] deals with Escherichia coli ATCC 10536. Briefly: Robotic BCT test of perfume ingredients in model surfactant bases. Format: cell-based. The note with it: for Log reduction (Log CFU/mL) Base 3: Base 3: SLES 1.5%, coco-glucoside 0.75%; for Log reduction (Log CFU/mL) Base 4: Base 4: SLES 2.25%, sodium xylene sulfonate 3%; for log reduction at 0.5 %: Escherichia coli, ATCC10536, 45 s. The method, then:
The surfactant bases tested included 1) sodium lauryl ether sulfate (SLES) and cocamidopropyl betaine (CAPB) at 3:1 mass ratios; 2) SLES, CAPB and coco-glucoside at 2:1:1 mass ratios. Test samples were prepared by mixing perfume ingredients with the surfactant bases and vigorously stirred for 24 hrs. Concentration of perfume ingredients in the bases was 0.5% wt. Samples with transparent appearance were selected for antimicrobial testing.
Antimicrobial efficacy was tested against a representative Gram-negative bacterial strain, Escherichia coli ATCC 10536, using robotic bacteria contact time (BCT) test based on European standard EN-1276 and EP2787827(B1).
Preparation of screening plate and dilution plate: Aliquots (270 µl) of compositions were dispensed into the wells of a 96-well microtiter plate (MTP) along two columns (B1-H1, and B7-H7), and 270 µl of MilliQ water was added to well A1 and A7 as the control samples. This MTP was labelled as the “Screening plate”. In another MTP, labelled as the “Dilution plate”, 270 µL of Dey-Engley (D/E) neutralizing solution was added to column 1 and column 7. 270 µl of tryptone diluent solution was added to columns 2-6 and columns 8-12 of the Dilution MTP by a Hamilton robotic liquid handling station.
BCT test & neutralization & dilution: Bacterial stock (30 µl) was then added to columns 1 of the ‘Screening plate’ and mixed by a Hamilton robotic liquid handling station. After a contact time of 45 seconds, 30 µl of the mixtures in column 1 were transferred into the corresponding wells of column 1 of the ‘Dilution plate’. After neutralizing for 5 minutes in the D/E neutralizing solution, 30 µl of the neutralized mixtures were transferred from column 1 to column 2 of the Dilution MTP and mixed, followed by transferring 30 µl of the mixtures from column 2 into column 3. This process was repeated serially diluting the bacteria suspensions across the plate to column 6. Bacterial stock (30 µl) was then added to columns 7 of the ‘Screening plate’ and mixed by a Hamilton robotic liquid handling station. After a contact time of 45 seconds, 30 µl of the mixtures in column 7 were transferred into the corresponding wells of column 7 of the ‘Dilution plate’. After neutralizing for 5 minutes in the D/E neutralizing solution, 30 µl of the mixtures were transferred from column 7 to column 8 of the Dilution MTP and mixed, followed by transferring further 30 µl mixtures from column 8 into column 9. This process was repeated serially diluting the bacteria suspensions across the plate to column 12.
Plating: 30 µl volumes from each well in the Dilution MTP were transferred onto four Tryptone Soya Agar (TSA) plates. The TSA plates were allowed to stand for about two hours so that the 30 µl inocula spots could dry and the plates were then inverted and incubated overnight at 37° C. for 24 hours. After incubation, colonies were counted.
Calculating log reduction: Select the dilutions with colony counts, and calculate the viable cell counts (CFU/mL) of mixture in ‘Screening plate’, and log reduction against the control MilliQ sample was calculated.

Data set [2] can be described thus: Equivalent alkane carbon number (EACN) in model microemulsion system. Format: physicochemical. The note with it: C10E5/water/isopropyl myristate model system, 3% wt perfume ingredient. How it is done:
EACN values provide information on polarity and surface activity of apolar ingredients. Tchakalova and Fieber (J. of Surfactants and Detergents, 2012, 15(2):167-177) classified perfume ingredients based on values of EACNmix, the EACN of a mixture consisting of a test perfume ingredient and a reference oil (isopropyl myristate). The same model system and method were used to measure the EACN values of perfume ingredients with antimicrobial activities. Different perfume ingredients were added to the model microemulsion system shown in Table 1, in which the nonionic pentaethylene glycol mono n-decyl ether (C10E5) was used as surfactant. Phase transition temperatures of the system from Winsor I to Winsor III, and from Winsor III to Winsor II were determined using a water bath. Alkanes with different alkane carbon numbers (octane, decane, dodecane and hexadecane) were used to establish a linear correlation curve between EACN and the PIT, which is the average of the transitions from Winsor I to Winsor III, and from Winsor III to Winsor II, respectively. EACNmix was then calculated based on the linear relationship and the measured PIT for systems containing different perfume ingredients. The EACN of the pure perfume ingredient was calculated based on the molar ratio of the tested PRMs in the oil phase using following equation: […]
wherein n and nref are the molar fractions of tested perfume ingredient and the reference ingredient (i.e., isopropyl myristate) in the oil phase, respectively.

Another data set concerns E. coli ATCC 10536. Briefly: Bacterial contact time (BCT) test of perfume ingredients in 20% ethanol solution (EN-1276 based). The note with it: 20% EtOH, 45 s. It is filed as cell-based, Escherichia coli. How it is done:
Bacterial suspensions of E. coli ATCC 10536 were prepared for antimicrobial testing as follows. Stock cultures stored at -80° C. were sub-cultured onto Tryptic Soy Agar (TSA) plate, and incubated at 37° C. for 24 h to obtain single colonies. Single colonies of the primary cultures were streaked onto TSA plates and incubated at 37° C. for 24 h to prepare the secondary cultures. Single colonies of secondary cultures were inoculated into 50 mL of Tryptic Soy broth (TSB), incubated at 37° C. 180 rpm for 18 h. Aliquots (0.5 ml) of the 18 h culture were inoculated into 50 ml of fresh TSB, and incubated at 37° C. 180 rpm for 2- 3 hours. When the OD600 nm value of the broth reached 1-2, cells were harvested by centrifugation at 5,000 rpm for 10 min, and then resuspended in the same fresh broth media to achieve the target level of 1-5 × 10^8 colony forming unit (CFU)/mL. This suspension was used for further antimicrobial tests.
Unless indicated otherwise, log reduction testing according to the present invention is determined in accordance with the following method.
Bacterial contact time (BCT) test based on European standard EN-1276 was used to determine dose dependent bactericidal activity of perfume ingredients in 20% ethanol solutions.
Perfume ingredients of various concentrations (doses) were prepared in 40% ethanol solutions. Eleven replicates of each sample were added into 96-well microtiter plates (120 µl per well) in column 1-11 of one row, with row B as the control sample of the ethanol solution. Then, 120 µl of cell suspension at a concentration of approximately 1-5 × 10^8 CFU/ML (as prepared above) were added to each well of the microtiter plate. A specified contact time (45 s) was allowed for target bacterial strains. At the end of the contact time, serial dilutions were prepared in 96 well plates with growth media: 3 times of 1 in 10 dilutions and followed by 17 times of 1 in 2 dilutions. Each plate was sealed and incubated at 37° C. under agitation (180 rpm). After incubation, turbidity of the wells (OD 600 nm) was recorded by Tecan microplate reader. Turbid cells were regarded as positive growth of viable cells. The total number of viable cells (log CFU/mL) for each sample was calculated. And the log reduction for each test composition at the final concentration (dose) was calculated against the control sample of the 20% ethanol solution.
Table 20 show the bactericidal dose related effect (log reduction) and calculated effect fraction of the Mixture C and compositions against E. coli ATCC 10536. Stock of compositions were prepared in 100% ethanol, then diluted in MilliQ water to obtain 2 × final concentration in 40% ethanol. BCT tests were conducted on samples against E. coli for a contact time of 45 s.

The mark [3] stands for this setting: 0.5% perfume ingredient, CAPB 0.75%, contact 45 s.
Setting [4] is: 0.5% perfume ingredient, Base 1: SLES 1.875%, CAPB 0.625%, contact 45 s, read-out: Log reduction in Base 1 (Log CFU/mL).
Setting [5] is: 0.5% perfume ingredient, Base 2: SLES 2.25%, CAPB 0.75%, contact 45 s, read-out: Log reduction (Log CFU/mL) Base 2.
Where [6] appears, read: model base 1, table by functional group, read-out: Log reduction in Base 1 (Log CFU/mL).

Take `CC(=O)OC(C)c1ccccc1` (racemic) [(+-)-1-phenylethyl acetate]: in data set [1] (setting [3]), the “Log reduction (Log CFU/mL) Base 3” value stood at 0.2 Log CFU/mL and the “Log reduction (Log CFU/mL) Base 4” value is given as “Insoluble”. Also, the log reduction at 0.5 % in data set [1] (setting [4]) is 0.6 ± 1. Also, the log reduction at 0.5 % in data set [1] (setting [5]) was 0. The EACN in data set [2] was -0.99.

Turning to `CC1=CC(C)C(CO)C(C)C1` (racemic) [(+-)-2,4,6-trimethyl-3-cyclohexene-1-methanol], the EACN in data set [2] is recorded as -25.02.

Take `Cc1ccc2c(c1)CC(C)(CO)C2` (racemic) [(+-)-2,5-dimethyl-2-indanmethanol]: in data set [2], the EACN is given as -33.01.

On to `CC(CO)c1ccccc1` (racemic) [(+-)-2-phenyl-1-propanol], for which the log reduction at 0.5 % in data set [1] (setting [4]) is -0.3. Besides, the EACN in data set [2] is -29.67.

With `CC(C=O)Cc1ccc2c(c1)OCO2` (racemic) [(+-)-3-(1,3-benzodioxol-5-yl)-2-methylpropanal], the EACN in data set [2] is reported as -11.56.

With `CCCCCC1CCCC(=O)O1` (racemic) [(+-)-6-pentyltetrahydro-2H-pyran-2-one], in data set [2], the EACN was -13.27.

With `CC1=CCC(C(C)(C)O)CC1` (racemic) [(+-)-alpha-terpineol], the log reduction at 0.5 % in data set [1] (setting [4]) stood at 1.6. Moreover, the EACN in data set [2] is given as -16.69.

For the compound `CCCCC(CC)CO` (stereo not drawn) [2-ethyl-1-hexanol], the log reduction at 0.5 % in data set [1] (setting [4]) and in data set [1] (setting [6]) was 3.6 in each case. Further, the EACN in data set [2] is -22.63. Further, the Effect fraction in the data set on E. coli ATCC 10536 (dose 0.060% w/v) was found to be 0.050; with E. coli ATCC 10536 (dose 0.065% w/v), 0.100; with E. coli ATCC 10536 (dose 0.070% w/v), 0.290; with E. coli ATCC 10536 (dose 0.075% w/v), 0.510; with E. coli ATCC 10536 (dose 0.080% w/v), 0.800. The Log reduction in the data set with E. coli ATCC 10536 (dose 0.060% w/v) was 0.367; in the data set with E. coli ATCC 10536 (dose 0.065% w/v), 0.728; in the data set with E. coli ATCC 10536 (dose 0.070% w/v), 2.052; in the data set with E. coli ATCC 10536 (dose 0.075% w/v), 3.678; with E. coli ATCC 10536 (dose 0.080% w/v), 5.760.

Turning to `C/C=C/c1ccc(O)c(OC)c1` [2-methoxy-4-[(1E)-1-propen-1-yl]phenol], the log reduction at 0.5 % in data set [1] (setting [4]) is 0. The EACN in data set [2] is -42.88.

In the case of `O=COCCc1ccccc1` [2-phenylethyl formate], the log reduction at 0.5 % in data set [1] (setting [4]) worked out at 0.3. For the same compound, the EACN in data set [2] was -6.21.

`CC/C=C\CC1=C(C)CCC1=O` [3-methyl-2-[(2Z)-2-penten-1-yl]-2-cyclopenten-1-one]: the EACN in data set [2] is listed as -8.51.

Consider `CC(C)(C)C1CCC(=O)CC1` [4-(2-methyl-2-propanyl)cyclohexanone], for which the EACN in data set [2] is reported as -3.78.

As for `CCCc1ccc2c(c1)OCC(=O)CO2` [7-propyl-2H,4H-1,5-benzodioxepin-3-one], in data set [1] (setting [4]), the log reduction at 0.5 % was 0. Besides, the EACN in data set [2] is -40.99.

Turning to `CC/C=C\CC/C=C/CO` [(2E,6Z)-2,6-nonadien-1-ol], the “Log reduction (Log CFU/mL) Base 3” value in data set [1] (setting [3]) is given as 3.9 Log CFU/mL. Further, the “Log reduction (Log CFU/mL) Base 4” value in data set [1] (setting [3]) is listed as above 4.5 Log CFU/mL. For the same compound, the log reduction at 0.5 % in data set [1] (setting [4]) was 5.6; in data set [1] (setting [5]), 0.5; in data set [1] (setting [6]), above 5.5. The EACN in data set [2] was -35.12.

`CC(C)=CCC/C(C)=C\C=O` [(2Z)-3,7-dimethyl-2,6-octadienal OR (2E)-3,7-dimethyl-2,6-octadienal]: in data set [2], the EACN is recorded as -5.09.

Turning to `CC/C(=C\C[C@H]1CC=C(C)C1(C)C)CO` [(-)-(2E)-2-ethyl-4-[(1R)-2,2,3-trimethyl-3-cyclopenten-1-yl]-2-buten-1-ol], the “Log reduction (Log CFU/mL) Base 3” value in data set [1] (setting [3]) is reported as “Insoluble”. For the same compound, the “Log reduction (Log CFU/mL) Base 4” value in data set [1] (setting [3]) was “Insoluble”. Besides, the log reduction at 0.5 % in data set [1] (setting [4]) was -0.2; in data set [1] (setting [5]), -1. Besides, in data set [2], the EACN is listed as -23.86.

For `CC(C)=CCC/C(C)=C\CO` [(Z)-3,7-dimethyl-2,6-octadien-1-ol], the “Log reduction (Log CFU/mL) Base 3” value in data set [1] (setting [3]) worked out at 4.9 Log CFU/mL. The “Log reduction (Log CFU/mL) Base 4” value in data set [1] (setting [3]) is 4.5 Log CFU/mL. For the same compound, the log reduction at 0.5 % in data set [1] (setting [4]) was above 5.4; in data set [1] (setting [5]), 0.5; in data set [1] (setting [6]) it was above 5.5. The EACN in data set [2] is reported as -28.26.

Turning to `CCOC(=O)Cc1ccccc1` [ethyl phenylacetate], in data set [2], the EACN is reported as -7.26.

In the case of `CCCCCCCCCCC=O` [undecanal], in data set [2], the EACN was found to be 4.59.
